Reference: patent publication US8653276B2 (SANOFI, priority 2008, dated 2014)
Counter-ions that a name gives are not always drawn.

For COC(=O)C1(NC(=O)c2ccc(-n3nc(C)cc3C)c(-c3ccc(Cl)c(OCCCN(C)C)c3)n2)CCCCC1 (as salt: hydrochloride) [Compound 18, methyl 1-({[6-{4-chloro-3-[3-(dimethylamino)propoxy]phenyl}-5-(3,5-dimethyl-1H-pyrazol-1-yl)pyridin-2-yl]carbonyl}amino)cyclohexanecarboxylate], which melting point is on record?
The melting point was 158 °C.

Which melting point does the source give for COC(=O)C1(NC(=O)c2cnc(-c3ccc(C)cc3C)c(-c3ccc(Cl)c(OCCCN(C)C)c3)n2)CCCCC1 (as salt: hydrochloride) [Compound 20, methyl 1-({[6-{4-chloro-3-[3-(dimethylamino)propoxy]phenyl}-5-(2,4-dimethylphenyl)pyrazin-2-yl]carbonyl}amino)cyclohexanecarboxylate] here?
The melting point was 118 °C.

With CCOc1ccc(Cl)c(-c2ncc(C(=O)N[C@@H](CC(=O)OC)C(C)(C)C)nc2-c2ccc(Cl)c(OCCCN(C)C)c2)c1 (as salt: hydrochloride) [Compound 24, methyl(3S)-3-({[6-{4-chloro-3-[3-(dimethylamino)propoxy]phenyl}-5-(2-chloro-5-ethoxyphenyl)pyrazin-2-yl]carbonyl}amino)-4,4-dimethylpentanoate] as the molecule, how does the melting point read?
The melting point was 112 °C.

With COC(=O)C1(NC(=O)c2ccc(-c3ccccc3Cl)c(-c3ccc(Cl)c(OCCCN(C)C)c3)n2)C2CC3CC(C2)CC1C3 (stereo not drawn) (as salt: hydrochloride) [Compound 26, methyl 2-({[6-{4-chloro-3-[3-(dimethylamino)propoxy]phenyl}-5-(2-chlorophenyl)pyridin-2-yl]carbonyl}amino)adamantane-2-carboxylate] as the molecule, how does the melting point read?
The melting point was 135 °C.

With CCOC(=O)C[C@H](NC(=O)c1ccc(-c2ccccc2C)c(-c2ccc(Cl)c(OCCCN(C)C)c2)n1)C(C)(C)C (as salt: hydrochloride) [Compound 29, ethyl(3S)-3-({[6-{4-chloro-3-[3-(dimethylamino)propoxy]phenyl}-5-(2-methylphenyl)pyridin-2-yl]carbonyl}amino)-4,4-dimethylpentanoate] as the molecule, how does the melting point read?
The melting point was 90 °C.

Which melting point does the source give for CNC(=O)C[C@H](NC(=O)c1ccc(-c2ccccc2C)c(-c2ccc(Cl)c(OCCCN(C)C)c2)n1)C(C)(C)C (as salt: hydrochloride) [Compound 33, 6-{4-chloro-3-[3-(dimethylamino)propoxy]phenyl}-N-{(1S)-2,2-dimethyl-1-[2-(methylamino)-2-oxoethyl]propyl}-5-(2-methylphenyl)pyridine-2-carboxamide] here?
Its melting point is 152 °C.
